For one compound, IC50 results are on record in paper PMC11091978 (ACS Pharmacology & Translational Science, 2024).

For this assay, the target named is NLRP3 (Homo sapiens, UniProt Q96P20). The assay is classed as cell-based.
Sequence of NLRP3 (Q96P20 whole entry): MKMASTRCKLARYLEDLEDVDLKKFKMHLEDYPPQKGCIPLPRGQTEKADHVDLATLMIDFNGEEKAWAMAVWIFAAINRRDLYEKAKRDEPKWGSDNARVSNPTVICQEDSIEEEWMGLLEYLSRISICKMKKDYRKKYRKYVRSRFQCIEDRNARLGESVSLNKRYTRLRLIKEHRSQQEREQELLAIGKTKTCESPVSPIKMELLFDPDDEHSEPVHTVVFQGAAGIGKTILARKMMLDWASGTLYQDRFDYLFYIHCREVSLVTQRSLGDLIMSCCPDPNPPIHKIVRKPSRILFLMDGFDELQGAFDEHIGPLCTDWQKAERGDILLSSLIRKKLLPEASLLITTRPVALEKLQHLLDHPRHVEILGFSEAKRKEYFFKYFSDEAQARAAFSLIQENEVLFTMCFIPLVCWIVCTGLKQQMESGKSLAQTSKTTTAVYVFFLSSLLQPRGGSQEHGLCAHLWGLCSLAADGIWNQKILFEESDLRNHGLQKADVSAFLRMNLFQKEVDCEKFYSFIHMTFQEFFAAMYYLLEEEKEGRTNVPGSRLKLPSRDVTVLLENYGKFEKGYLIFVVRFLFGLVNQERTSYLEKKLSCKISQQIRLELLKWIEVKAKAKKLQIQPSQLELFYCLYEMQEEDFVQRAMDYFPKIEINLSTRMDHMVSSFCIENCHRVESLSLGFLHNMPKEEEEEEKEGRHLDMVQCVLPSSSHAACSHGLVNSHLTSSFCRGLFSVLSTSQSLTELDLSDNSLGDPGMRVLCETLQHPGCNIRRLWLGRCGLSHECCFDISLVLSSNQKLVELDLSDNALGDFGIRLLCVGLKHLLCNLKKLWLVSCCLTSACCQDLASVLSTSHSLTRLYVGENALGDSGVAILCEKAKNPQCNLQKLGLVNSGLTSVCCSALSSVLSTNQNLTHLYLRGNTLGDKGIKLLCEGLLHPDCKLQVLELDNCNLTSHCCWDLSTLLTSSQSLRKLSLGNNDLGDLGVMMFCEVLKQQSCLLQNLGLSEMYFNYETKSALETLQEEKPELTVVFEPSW

The term IC50 denotes the point on the concentration scale where inhibition reaches its midpoint. With `Cn1cc(N(C[C@@H]2CCCO2)S(=O)(=O)NC(=O)Nc2c3c(cc4c2CCC4)CCC3)cn1` [NT-0249, [(1,2,3,5,6,7-hexahydro-s-indacen-4-yl)carbamoyl][(1-methyl-1H-pyrazol-4-yl)({[(2S)-oxolan-2-yl]methyl})sulfamoyl]azanide], the IC50 amounted to 0.011 µM.
